Measured values as given in PubChem BioAssay AID292 (DTP/NCI, 2004).
Values joined by “and” are separate entries in the source; they are usually repeats but may differ in a detail not shown here. Identical values can stand only once. Inconclusive results and toxic doses are left out.

Test system: B6C3F1 mice, ip Sarcoma M5076, median survival T/C
Test: NCI In Vivo Anticancer Drug Screen. Data for tumor model Sarcoma M5076 (intraperitoneal) in B6C3F1 mice
Conditions: endpoint: median survival time, schedule: Q04DX004 (ip), higher = longer survival
In short: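 Tumour cells were transplanted into mice, compound or vehicle was given, survival of both groups was followed, and the treated figure was expressed over the control figure.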

[1] = dose: 75.0 mg/kg/injection, vehicle: saline with Tween-80
[2] = dose: 150.0 mg/kg/injection, vehicle: saline with Tween-80
[3] = dose: 50.0 mg/kg/injection, vehicle: saline with Tween-80
[4] = dose: 100.0 mg/kg/injection, vehicle: saline with Tween-80
[5] = dose: 200.0 mg/kg/injection, vehicle: saline with Tween-80
[6] = dose: 400.0 mg/kg/injection, vehicle: saline with Tween-80
[7] = dose: 50.0 mg/kg/injection, vehicle: Klucel (hydroxypropylcellulose) (HPC)
[8] = dose: 100.0 mg/kg/injection, vehicle: Klucel (hydroxypropylcellulose) (HPC)
[9] = dose: 800.0 mg/kg/injection, vehicle: saline with Tween-80
[10] = dose: 25.0 mg/kg/injection, vehicle: saline with Tween-80
[11] = dose: 150.0 mg/kg/injection, vehicle: suspension in saline
[12] = dose: 300.0 mg/kg/injection, vehicle: suspension in saline
[13] = dose: 600.0 mg/kg/injection, vehicle: suspension in saline
[14] = dose: 200.0 mg/kg/injection, vehicle: Klucel (hydroxypropylcellulose) (HPC)
[15] = dose: 400.0 mg/kg/injection, vehicle: Klucel (hydroxypropylcellulose) (HPC)
[16] = dose: 25.0 mg/kg/injection, vehicle: saline
[17] = dose: 50.0 mg/kg/injection, vehicle: saline
[18] = dose: 12.5 mg/kg/injection, vehicle: saline with Tween-80
[19] = dose: 25.0 mg/kg/injection, vehicle: Klucel (hydroxypropylcellulose) (HPC)
[20] = dose: 37.5 mg/kg/injection, vehicle: saline with Tween-80

With `Nc1nc2c(ncn2C2OC(CO)C(O)C2O)c(=O)[nH]1` (centres undefined) the T/C [1] was 107 % of control, the T/C [2] was 114 % of control and the T/C (dose: 300.0 mg/kg/injection, vehicle: saline with Tween-80) was 114 % of control. For the same compound, the T/C (dose: 600.0 mg/kg/injection, vehicle: saline with Tween-80) was 114 % of control and the T/C (dose: 1200.0 mg/kg/injection, vehicle: saline with Tween-80) was 109 % of control.

`CCNC(=O)[B-][N+](C)(C)C` was tested, and the T/C [3] was 96 % of control, the T/C [4] was 104 % of control and the T/C [5] was 102 % of control. For the same compound, the T/C [6] was 92 % of control.

For `N#CC1C(=O)NC(=S)NC1c1ccc(Cl)cc1` (centres undefined), the T/C [7] was 103 % of control and the T/C [8] was 100 % of control.

`O=C1CCC(=O)N1CO` was tested, and the T/C [3] was 93 % of control, the T/C [4] was 101 % of control and the T/C [5] was 87 % of control. For the same compound, the T/C [6] was 100 % of control and the T/C [9] was 97 % of control.

With `CC(C)(C)c1ccc(C(=O)N2CCOC23CCCCC3)cc1` the T/C [3] was 101 % of control and 103 % of control, the T/C [4] was 93 % of control and 103 % of control and the T/C [5] was 97 % of control and 98 % of control. For the same compound, the T/C [6] was 91 % of control and 100 % of control and the T/C [9] was 89 % of control and 93 % of control.

With `COc1cc2c(c3c1/c(=N/N)c1ccccc1n3C)C=CC(C)(C)O2` the T/C [10] was 108 % of control, the T/C [3] was 110 % of control and the T/C [4] was 89 % of control. For the same compound, the T/C [5] was 104 % of control.

With `Cc1cn(C2CC(F)C(CO)O2)c(=O)[nH]c1=O` (centres undefined) the T/C (dose: 7.5 mg/kg/injection, vehicle: suspension in saline) was 111 % of control, the T/C [11] was 101 % of control and the T/C [12] was 111 % of control. The T/C [13] was 117 % of control.

In the case of `CN1C(=O)C(=O)N(Cc2ccc(CN3C(=O)C(=O)N(C)C3=O)cc2)C1=O`, the T/C [7] is reported as 98 % of control, the T/C [8] is reported as 94 % of control and the T/C [14] is reported as 115 % of control. For the same compound, the T/C [15] was 92 % of control.

With `CCN(Cc1ccc(Cl)c(Cl)c1)c1ccc2nc(N)nc(N)c2c1C` the T/C (dose: 6.25 mg/kg/injection, vehicle: saline) was 107 % of control, the T/C (dose: 12.5 mg/kg/injection, vehicle: saline) was 107 % of control and 122 % of control and the T/C [16] was 118 % of control (2×) and 123 % of control. For the same compound, the T/C [17] was 110 % of control.

With `COc1ccccc1-n1cc[n+](C)c1/C=N/O` the T/C [16] was 101 % of control and the T/C [17] was 101 % of control.

In the case of `[CH3][Sn]([CH3])([Cl])[c]1cc[c]([Sn]([CH3])([CH3])[Cl])cc1`, the T/C (dose: 0.25 mg/kg/injection, vehicle: saline) is reported as 108 % of control, the T/C (dose: 0.5 mg/kg/injection, vehicle: saline) is reported as 105 % of control and the T/C (dose: 1.0 mg/kg/injection, vehicle: saline) is reported as 87 % of control. For the same compound, the T/C (dose: 2.0 mg/kg/injection, vehicle: saline) was 91 % of control.

In the case of `N#CC1C(=O)NC(=O)C(C#N)C1c1ccc(Cl)cc1Cl` (centres undefined), the T/C [7] is reported as 93 % of control, the T/C [8] is reported as 95 % of control and the T/C [14] is reported as 100 % of control. For the same compound, the T/C [15] was 96 % of control.

For `COC(=O)NC1C(C)OC(OC2C/C=C(/C)C3C=CC4C(OC5CC(OC6CC(OC7CC(O)C(O)C(C)O7)C(OC7CC(O)C(OC)C(C)O7)C(C)O6)C(O)C(C)O5)C(C)CC(C)C4C3(C)/C(O)=C3\C(=O)OC4(CC(C)C(CO)=CC4/C=C\2C)C3=O)CC1(C)[N+](=O)[O-]` (centres undefined), the T/C (dose: 12.5 mg/kg/injection, vehicle: water) was 97 % of control, the T/C (dose: 25.0 mg/kg/injection, vehicle: water) was 100 % of control and the T/C (dose: 50.0 mg/kg/injection, vehicle: water) was 94 % of control. For the same compound, the T/C (dose: 100.0 mg/kg/injection, vehicle: water) was 104 % of control and the T/C (dose: 200.0 mg/kg/injection, vehicle: water) was 111 % of control.

`[N-]=[N+]=NCCOCn1ccc(=O)[nH]c1=O` was tested, and the T/C (dose: 37.5 mg/kg/injection, vehicle: suspension in saline) was 102 % of control, the T/C (dose: 75.0 mg/kg/injection, vehicle: suspension in saline) was 107 % of control and the T/C [11] was 109 % of control. For the same compound, the T/C [12] was 103 % of control and the T/C [13] was 98 % of control.

`N#CC1C(=O)NC(=O)C(C#N)C1c1ccc(Cl)c(Cl)c1` (centres undefined) was tested, and the T/C [7] was 102 % of control, the T/C [8] was 94 % of control and the T/C [14] was 99 % of control. For the same compound, the T/C [15] was 102 % of control.

`Cc1cc(O)c2c(c1O)C(=O)C13C(=C2O)C(=O)C2C(O)C1C1C(O)C3C(=O)C3=C(O)c4c(O)cc(C)c(O)c4C(=O)C321` (centres undefined) was tested, and the T/C (dose: 1.56 mg/kg/injection, vehicle: saline with Tween-80) was 118 % of control, the T/C (dose: 3.12 mg/kg/injection, vehicle: saline with Tween-80) was 118 % of control and the T/C (dose: 6.25 mg/kg/injection, vehicle: saline with Tween-80) was 118 % of control. The T/C [18] was 124 % of control.

In the case of `Cn1c2ccccc2c2ccc3c(c21)C(=O)C=CC3=O`, the T/C [19] is reported as 93 % of control and the T/C [7] is reported as 98 % of control.

`COc1ncc(Br)cc1C(=O)NCCc1ccc(S(=O)(=O)NC(=O)NC2CCCCC2)cc1` was tested, and the T/C [18] was 100 % of control, the T/C [10] was 102 % of control and the T/C [3] was 100 % of control.

In the case of `c1ccc([Te][Te]c2ccccc2)cc1`, the T/C (dose: 18.75 mg/kg/injection, vehicle: saline with Tween-80) is reported as 106 % of control, the T/C [20] is reported as 100 % of control and the T/C [1] is reported as 98 % of control.

With `Nc1ccc2ccc(N)cc2c1` the T/C [10] was 93 % of control, the T/C [3] was 96 % of control and the T/C [4] was 89 % of control. For the same compound, the T/C [5] was 93 % of control.

In the case of `Nc1ncc(C2OC(CO)C(O)C2O)c(=O)[nH]1` (centres undefined), the T/C [16] is reported as 106 % of control, the T/C [17] is reported as 104 % of control and the T/C (dose: 100.0 mg/kg/injection, vehicle: saline) is reported as 103 % of control. The T/C (dose: 200.0 mg/kg/injection, vehicle: saline) was 96 % of control and the T/C (dose: 400.0 mg/kg/injection, vehicle: saline) was 100 % of control.

In the case of `O=NN(CCCl)C(=O)NCCCl`, the T/C (dose: 1.5 mg/kg/injection, vehicle: saline + alcohol) is reported as 116 % of control, the T/C (dose: 6.0 mg/kg/injection, vehicle: saline + alcohol) is reported as 163 % of control and 164 % of control and the T/C (dose: 12.0 mg/kg/injection, vehicle: saline + alcohol) is reported as 224 % of control and 292 % of control. For the same compound, the T/C (dose: 24.0 mg/kg/injection, vehicle: saline + alcohol) was 248 % of control and 292 % of control and the T/C (dose: 48.0 mg/kg/injection, vehicle: saline + alcohol) was 244 % of control.

With `COc1ccc(Nc2c3sc4cc(OC)ccc4nc-3c3ccccc3c2=O)cc1` the T/C [20] was 105 % of control, the T/C [1] was 89 % of control and the T/C [2] was 86 % of control.

With `CC1(C)C(=O)NC(=O)c2ccccc21` the T/C [19] was 109 % of control.

For `CN1[C@H]2C=CC(=O)[C@]1(Cl)[C@H]1C(=O)N(c3ccccc3)C(=O)[C@@H]21`, the T/C [10] was 102 % of control and 107 % of control, the T/C [3] was 101 % of control and 107 % of control and the T/C [4] was 95 % of control and 100 % of control. The T/C [5] was 94 % of control and the T/C [6] was 101 % of control.

`COC(=O)c1ccc(OCc2nc3ccccc3[nH]2)cc1` was tested, and the T/C [10] was 95 % of control, the T/C [3] was 100 % of control and the T/C [4] was 95 % of control. For the same compound, the T/C [5] was 89 % of control and the T/C [6] was 90 % of control.

For `CC(C)(C)c1cc2c3c(c1)Oc1cc(C(C)(C)C)cc4c1C3(O)c1c(cc(C(C)(C)C)cc1O4)O2`, the T/C (dose: 6.25 mg/kg/injection, vehicle: Klucel (hydroxypropylcellulose) (HPC)) was 111 % of control, the T/C (dose: 9.0 mg/kg/injection, vehicle: Klucel (hydroxypropylcellulose) (HPC)) was 113 % of control and the T/C (dose: 12.5 mg/kg/injection, vehicle: Klucel (hydroxypropylcellulose) (HPC)) was 113 % of control.

In the case of `O=C(Nc1nc(-c2ccccc2)cs1)OCC(Cl)(Cl)Cl`, the T/C [10] is reported as 103 % of control, the T/C [3] is reported as 107 % of control and the T/C [4] is reported as 94 % of control. The T/C [5] was 91 % of control and the T/C [6] was 91 % of control.

With `CC1=C(/C=C/C(C)=C/C=C/C(C)=C/C(=O)Nc2ccc(O)cc2)C(C)(C)CCC1` the T/C [10] was 97 % of control, the T/C [3] was 96 % of control and the T/C [4] was 105 % of control. The T/C [5] was 95 % of control and the T/C [6] was 97 % of control.
